Reference: patent US5506213A, “Adminstration of 2'-halo-2'-deoxy adenosine to treat inflammatory bowel disease” (priority 1994, dated 1996)
Like-named read-outs stand apart in the source and are kept apart here.

Columns and labels:
[1] = tested on: multiple sclerosis; test: Treatment of chronic multiple sclerosis patients with CdA; format: in vivo, human
Method: A study of four patients with chronic multiple sclerosis was undertaken. Each patient was first examined for normal hepatic, renal, and bone marrow functioning to establish baseline values. Each of the patients was then treated with CdA dissolved in sterile preservative-free isotonic saline. The CdA was administered intravenously at a dosage of 0.1 mg/kg each day for a total of seven days. Each patient received six courses of intravenous therapy, once monthly for a total of six months. Patients were examined on a daily basis while hospitalized. During that time, daily blood counts and twice weekly blood chemistries were performed on each patient. CdA levels were also measured in blood and spinal fluid.
The neurologic function of each of these patients was measured using the expanded Krutzke disability status scale (EDSS), and the neurologic rating scale (NRS).

[2] = tested on: neopterin; test: Plasma neopterin levels in a rheumatoid arthritis patient treated with CdA; format: in vivo, human
Method: Plasma neopterin levels were measured in a patient with rheumatoid arthritis. Neopterin is released from monocytes and macrophages activated in an immune response. Huber et al., J. Exp. Med., 160:310-316 (1984). Likewise, high levels of neopterin are associated with clinical activity in patients with rheumatoid arthritis. Clinical activity was rated by the following criteria: duration of morning stiffness, range of motion, subjective pain score, measurement of grip strength, synovial thickening, and number of inflamed joints. Reibnegger et al., Arthritis Rheum., 29:1063-1070 (1986). The levels of neopterin in patients with rheumatoid arthritis are proportional to both clinical activity and the levels of activated monocytes and macrophages in these patients.
In this study, a patient with rheumatoid arthritis received CdA by a weekly, four hour intravenous infusion at a dosage of 0.125 to 0.15 mg/kg body weight for an approximately three month course of therapy. Plasma neopterin levels were measured throughout this treatment regime.

[3] = tested on: normal human monocytes; test: In vitro cytotoxicity toward human monocytes (MTT reduction assay); format: cell-based; settings: for IC50: Homo sapiens, Monocyte
Description: The percentage of viable cells remaining after treatment (ordinate) is plotted against the concentration of CdA utilized (abscissa), on a linear scale.
Peripheral blood monocytes and lymphocytes were isolated by well known methods from normal subjects. […] The human fibroblast cell line GMO1380 was obtained originally from the NIGMS Human Genetic Mutant Cell Repository, Camden, N.J., and cultured under the same conditions as above. That cell line was from a normal fetal lung.
Meth., 65: 55-63. After culturing for up to five days, 3-(4,5-dimethylthiazol-2-yl)-2,5-diphenyl tetrazolium bromide (MTT) at 0.2 mg (40 μl) was admixed with each well and the incubation was continued for another 4 hours. The plates were then centrifuged at 1000×g for 10 minutes, and supernatants were carefully aspirated with a finely drawn pipette.
Acidified isopropanol (100 μl; using 0.04N HCl) was added to each well.
Viable cell numbers were determined using a Dynatech microplate spectrophotometer, measuring absorbance at a wavelength of 570 nanometers (nm), using a reference wavelength of 630 nm.

[4] = tested on: autoantibody production; test: 2-Chlorodeoxyadenosine in autohemolytic anemia patients; format: in vivo, human
Description: Thus, the present invention provides a method for decreasing the number of circulating blood monocytes.

[5] = tested on: monocytes; test: Monocyte phagocytosis of antibody-coated erythrocytes; format: cell-based, human; settings: three days
Method: FIG. 6 is a graph that illustrates the effects of relatively low doses of CdA used to contact monocytes for a 72 hour time period. Monocyte release of interleukin-6 (IL-6; closed diamonds) and phagocytosis of antibody-coated red blood cells (RBC; closed squares) were examined, as was the viability of the cultured monocytes (open squares). Effects are expressed as a percentage of control values versus the CdA concentration in nanomoles (nM).
The effects of sub-lethal CdA concentrations on monocyte function in vitro was also studied. Cells were contacted and cultured with CdA (5-20 nM) for three days, after which phagocytosis and supernatant IL-6 activity were assayed.
Monocyte phagocytosis was assayed using autologous erythrocyte targets, sensitized with a subagglutinating titer of rabbit anti-human erythrocyte IgG (Cappel, Malvern, Pa.). Monocytes (2×10^5 cells/well) were exposed to sub-toxic concentrations of CdA in microwell plates for 72 hours. Complete medium was replaced with medium containing 10% fetal bovine serum, and a suspension of sensitized erythrocytes (0.25% packed cell volume) was added to the adherent monocyte layers. After incubation for 4 hours at 37 degrees C., the degree of phagocytosis was quantitated by the spectrophotometric method of Jungi (1985) J. Immunol. Meth., 82:141-153. […]

[6] = tested on: CEM, Increased 5'-nucleoside; test: Direct comparative cytotoxicity assay (Table II), CEM increased 5'-nucleoside; format: cell-based, human; settings: Homo sapiens, 120 h, read-out: ID50: concentration that produced 50 percent reduction in all numbers after five days
Description: (§1) The two compounds, CdA and CAFdA, were also compared for in vitro activity against another group of human cell lines in a direct comparative assay.
(§2) ^1 Concentration that produced 50 percent reduction in all numbers
(§3) ^2 CEM cells are T lymphoblasts; DHL9 cells are lymphoblasts.

[7] = tested on: 2 week old cultured monocytes (differentiated macrophages); test: In vitro cytotoxicity toward 2 week old cultured monocytes; format: cell-based, human
[8] = tested on: DHL9, wild type; test: Direct comparative cytotoxicity assay (Table II), DHL9 wild type; format: cell-based, human; settings: Homo sapiens, 120 h, read-out: ID50: concentration that produced 50 percent reduction in all numbers after five days
Description: as §1, §2, §3

[9] = cited from earlier work
[10] = tested on: monocytes; test: Direct comparative cytotoxicity assay (Table II), monocytes; format: cell-based, human; settings: Homo sapiens, Monocyte, 120 h, read-out: ID50: concentration that produced 50 percent reduction in all numbers after five days
Description: as §1, §2

With `Nc1nc(Cl)nc2c1ncn2[C@H]1C[C@H](O)[C@@H](CO)O1` [CdA, 2-chloro-9,1'-beta-D-2'-deoxyribosyladenine] the “cerebrospinal fluid IgG oligoclonal bonds” value ([1]; all cases) was “complete disappearance”, the platelet counts ([1]; all four patients) was “remained within the normal range” and the macrocytosis ([1]; all patients, lasting six to eight months after cessation of treatment) was “modest macrocytosis”. The monocyte level ([1]; another patient, after two treatments) was “substantially absent”, the “neurologic function, EDSS and NRS scales” value ([1]; during treatment with CdA) was “evidence of improvement in all four patients” and the toxic side effects ([1]; four patients, 0.1 mg/kg each day i.v. for seven days, six monthly courses) was “no evidence of any significant toxic side effects”. The “cerebrospinal fluid lymphocyte counts” value ([1]; human, in vivo) was “marked drop”, the “total CFS IgG” value ([1]; human, in vivo) was “no significant change” and the monocyte drop ([1]; one patient, after the first treatment) was 40%. For the same molecule, the monocyte level ([1]; same patient, after each of the remaining five treatments) was “substantially absent”, the plasma neopterin ([2]; by about day 84 of therapy) was “about 18 nM” and the plasma neopterin ([2]; days 14 through 70 after the first administration) was “about 30 nM”. For the same molecule, the plasma neopterin ([2]; initial value, weekly four hour i.v. infusion 0.125 to 0.15 mg/kg) was “about 60 nM”, the plasma neopterin ([2]; within the first seven days of therapy) was “about 25 nM” and the IC50 ([3]; 120 h, five days exposure (FIG. 2), read-out: CdA concentration at which 50 percent of the cultured monocytes were killed) was 0.02 µM. The IC50 ([3]; another study, freshly isolated monocytes, read-out: CdA concentration at which 50 percent of freshly isolated monocytes were killed) was 0.022 µM, the “monocyte sensitivity to CdA in the presence of deoxycytidine” value ([3]; deoxycytidine 100 μM) was “substantially reduced” and the autoantibody production [4] was “significant decrease in autoantibody production”. For the same molecule, the hemolysis [4] was “reduction in hemolysis”, the cell viability ([5]; 5-20 nM CdA) was “unchanged cell viability” and the “phagocytosis of antibody-coated erythrocyte targets” value ([5]; 10 and 20 nM CdA) was “markedly suppressed”. For the same molecule, the IC50 [6] was 0.06 µM, the IC50 ([7]; Homo sapiens, Monocyte, 336 h, read-out: CdA concentration at which 50 percent of 2 week old cultured monocytes were killed) was over 0.25 µM and the “increase in resistance of 2 week old cultured versus freshly isolated monocytes” value ([7]; human, monocytes) was “over 12.5 times”. For the same molecule, the IC50 [8] was 0.08 µM, the “plasma level at which dose-limiting bone marrow suppression usually occurred” value ([9]; humans, infusion) was “greater than 20 nM” and the concentration ([9]; infusion of 0.1-0.5 mg/kg/day, humans, read-out: plasma concentrations of the drug) was 10 to 50 nM. The tolerability ([9]; infusion, no nausea, vomiting or fever) was “well tolerated” and the IC50 [10] was 0.022 µM.
